For series [1], the system named is OVA-sensitized asthmatic rats. Nature of the series: OVA-induced broncho-constriction (Penh) in asthmatic rats. In kind it is in vivo, Brown Norway rats. As for the experimental part:
Subjects: Inbred Brown Norway male rats (4 weeks old) obtained from Harlan, USA, were used in this study. The Hebrew University Animal Welfare Committee approved all protocols.
In mode 1, all groups (5 rats in each) were treated and challenged as described above on day 14, 16, 18 and 20, and pulmonary function (Penh) was assessed on day 20 before and 5 min after challenge (EAR).
In mode 2, each group (10 rats in each) were treated and challenged from day 14, every other day, until day 45. Pulmonary function (Penh) was assessed on day 20 before and 5 min and 8 h after challenge, corresponding to early and late asthmatic reaction (EAR and LAR, respectively).
Assessment of broncho-constriction: Unrestrained conscious rats were placed in a whole-body plethysmograph (Buxco Electronics Inc., Troy, N.Y., USA) connected to a pneumotach (EMKA Technologies, Type 0000) at one end, and to a 10 ml bottle at the other end. The pneumotach was connected to a preamplifier (model MAX2270, Buxco Electronics). Analogue signals from the amplifier were converted to a digital signal by an AD card (LPM-16 National Instruments, Austin, Tex., USA). Broncho-constriction measures were expressed as the enhanced pause (Penh). Penh=(PEF/PIF)*((Te−Tr)/Tr), where PEF=Peak Expiratory Flow, PIF=Peak Inspiratory Flow, Te=Expiratory Time, Tr=Relaxation Time=time of the pressure decay to 36% of total box pressure during expiration.

Series [2] has as its system rats with endotoxin-induced sepsis. Nature of the series: Rat survival in LPS-induced endotoxinemia. In kind it is in vivo. As to conditions: 100 mg/kg 3 hours before LPS (15 mg/kg i.p.) and 50 mg/kg with LPS; 48 hours. As for the experimental part: Endotoxins administered to animals produce cardiovascular and multiorgan disorders that are similar to clinical sepsis. Thus, in the present study, a rat model was developed to test possible Lipid-conjugate effects on mediator production and mortality in endotoxin-induced Sepsis. Rats were intraperitoneally (i.p.) or intravenously (i.v.) injected with a Lipid-conjugate (Compound XXII, 100 mg/kg) dissolved in sterile saline or with sterile saline alone as placebo. After 3 hours, all rats received LPS (15 mg/kg i.p.; Escherichia coli 111:B44 LPS, Sigma, Deisenhofen, Germany). In rats that were pretreated with Compound XXII, LPS was injected together with a second dose of Compound XXII (50 mg/kg). The effect of Compound XXII on LPS injected rats was observed over a time period of 48 hours.

The next series deals with TNF-α and IL-6 in serum. As to the kind of experiment: Serum cytokine levels in septic rats (ELISA). It is filed as in vivo, rat. As to the method:
Blood samples were collected 1, 6, 12, and 24 hours after LPS injection to assess cytokine concentrations (FIG. 4.3A). […] Thereafter, the animals received LPS (7.5 mg/kg) i.p. alone or together with Compound XXII (150 mg/kg) or Compound XXV (50 mg/kg). Blood samples were collected after LPS injection. A group of rats that was not treated with Lipid-conjugates or LPS served as negative controls (FIG. 4.3B). All cytokines were measured in separated serum by ELISA Immunoassays (R&D Systems GmbH, Wiesbaden, Germany) according to the instructions of the manufacturer.
In Experiment 4.5, sepsis was induced by LPS ([…] endotoxin, 5 mg/kg) and lipoteichoic acid (LTA, […] endotoxin, 5 mg/kg; Staph. aureus LTA, Sigma, Germany).
(An ELISA detects its analyte on a solid surface through an enzyme-linked reagent.)

The next series relates to mice. As to the kind of experiment: Long-term (30 weeks) toxicity test. It is filed as in vivo. As for the experimental part:
For the long-term toxicity test a group of 6 mice received an i.p injection of 100 mg Lipid-conjugate (Compound XXII)/kg body weight 3 times a week for 30 weeks (e.g., 180 mg total to a mouse weighing 20 g). Toxicity was evaluated as for Table 8.1. The results of the long-term toxicity test are depicted in Table 8.2.

The test system of series [3] is TNFα production by BAL macrophages. As to the kind of experiment: TNFα production by macrophages from BAL of OVA-sensitized asthmatic rats. As to conditions: compared with Naive and Dx-treated rats; p<0.001 vs Asthmatic.
A further series has as its system Punta Toro virus. It is filed as cell-based, strain Adames.
The test system of series [4] is Respiratory syncytial virus. It is filed as cell-based, strain A2.
The subject of series [5] is Influenza A (H1N1 strain) virus. It is filed as cell-based, Influenza type A, A/New Caledonia/20/99 (H1N1).
Series [6] has the same test system. It is filed as cell-based, Influenza type A, A/New Caledonia/20/99 (H1N1). As to conditions: high concentration, Neutral Red Uptake Assay.
For series [7], the system named is Influenza A (H3N2 strain) virus. It is filed as cell-based, Influenza type A, A/Panama/2007/99 (H3N2). Particulars: high concentration, Neutral Red Uptake Assay.
In series [8] the test system is Influenza B virus. It is filed as cell-based, Influenza type B, B/Hong Kong/330/02. As to conditions: high concentration; Visual Observation Assay; Influenza B.
For series [9], the system named is Influenza B virus. In kind it is cell-based, Influenza type B, B/Hong Kong/330/02. As to conditions: high concentration, Neutral Red Uptake Assay.
The next series concerns Human RBC. As to the kind of experiment: Prevention of hemolysis of human red blood cells. In kind it is cell-based. As to conditions: 20 min, 10 μM Lipid-conjugate, None = 1.000. As for the experimental part: Hemolysis, the breakdown of red blood cells (RBC), may be either a primary disease in itself, or a syndrome associated with another disease or physiological insult. In order to determine the effect of Lipid-conjugates on hemolysis, red blood cells were incubated in the presence of known membrane destabilizing agents and the release of hemoglobulin into the extracellular medium was detected.
Human RBC were washed in saline and suspended in Hanks buffer (pH 7.4). Hemolysis was induced in the absence or presence of 10 μM Lipid-conjugates by treatment with either 5 U/ml streptolysin O (SLO), 25 U/ml streptolysin S (SLS), or 5 μg/ml lysophosphatidylcholine (lyso-PC) for 20 min. The cell membranes were spun and the hemoglobin content in the supernatant was determined by measuring the O.D. at 540 nm (Table 5.1).

Where [10] appears, read: 100 mg/kg i.p. 3 times/week for 30 weeks.

Values joined by “and” are separate entries in the source; they are usually repeats but may differ in a detail not shown here. Equal entries are not always repeated. Where two headings read alike, the source gives them in different places.

Usually EC50 stands for the concentration giving half of the maximal effect.

Turning to “dipalmitoyl-PE conjugated to HA [Compound XXII]”, in series [1] (aerosol inhalation, 5 min after challenge, compared with Naïve or Dx-treated groups, p<0.01 vs Asthmatic), the “broncho-constriction (percent change of Penh), early asthmatic reaction (EAR)” value is listed as “no significant difference”. For the same substance, in series [1] (aerosol inhalation, 8 h after challenge, compared with Naïve or Dx-treated groups, p<0.01 vs Asthmatic), the “broncho-constriction (percent change of Penh), late asthmatic reaction (LAR)” value is on record as “no significant difference”. Further, the “allergen-induced broncho-constriction (Penh), inhaled before OVA challenge” value in [1] (already asthmatic rats, nebulized 1 mg/ml for 5 minutes, 30 minutes before challenge) was “effective in preventing allergen-induced broncho-constriction”. The “broncho-constriction (Penh), inhaled after OVA challenge” value in series [1] (asthmatic rats, nebulized 1 mg/ml for 5 minutes, thirty minutes after challenge) was “reverse broncho-constriction”. The “mortality rate among septic rats” value in series [2] is reported as “markedly reduced the mortality rate”. For the same substance, the “cytokine production induced by LPS or LPS + LTA” value with TNF-α and IL-6 in serum (150 mg/kg, 5 mg/kg i.p. LPS, or LPS + 5 mg/kg i.p. LTA, 1 and 6 hours) is recorded as “effective in suppressing cytokine production”. Moreover, the endotoxin-induced cytokine production entry in the series on TNF-α and IL-6 in serum (i.v. at the same time as LPS i.p., versus i.p. pretreatment) was “suppressed equally well”. Also, the mortality entry with mice (100 mg/kg i.p. 3 times a week for 30 weeks) is reported as “no incidents of mortality”. For the same substance, in the series with mice (100 mg/kg i.p. 3 times a week for 30 weeks, compared to control, untreated mice), the “changes in body weight, red or white blood cell count, or hematocrit” value is reported as “no significant changes”. Besides, in the series with mice (setting [10]), the “Body weight (g) Final” value amounted to 39.0 ± 2.7 g, the Hematocrit % amounted to 43.4 ± 4.9%, the “RBC × 10^6” value is 11.7 ± 0.7 × 10^6 and the “WBC × 10^3” value is listed as 8.1 ± 15 × 10^3. Further, in series [3], the “TNFα production, BAL macrophages” value is given as “no significant differences”.
Take “dipalmitoyl-phosphatidyl-ethanolamine conjugated to heparin [Compound XXIV]”: the “SI (IC50/EC50)” value with Punta Toro virus is 0; in [5] it was 20 and 11. Also, the EC50 with Punta Toro virus (low concentrations, Visual Observation Assay, Punta Toro A) is over 100 µg/mL; in [4], 4 µg/mL; in series [5] (high concentration, Visual Observation Assay, Influenza A (H1N1 strain)), 400 µg/mL; in [6] it was 1000 µg/mL; in series [7], 900 µg/mL; with Influenza B virus [8], 350 µg/mL. The EC50 in the series with Influenza B virus [9] was determined as 450 µg/mL. Moreover, in the series with Punta Toro virus (lower range of doses, at the concentrations tested), the “virus inhibitory effect against Punta Toro virus” value is on record as “did not display a virus inhibitory effect”. In the series with Human RBC (5 μg/ml lysophosphatidylcholine), the “HEMOLYSIS (O.D. AT 540 nm), Lyso-PC” value came to 0.002 O.D. Also, the “HEMOLYSIS (O.D. AT 540 nm), SLO” value with Human RBC (5 U/ml streptolysin O) turned out to be 0.002 O.D. Also, in the series with Human RBC (25 U/ml streptolysin S), the “HEMOLYSIS (O.D. AT 540 nm), SLS” value came to 1.100 O.D.

Values taken from patent US7504384B2 (priority 2000, dated 2009).
